Results as given in paper PMC6522510 (Nature Communications, 2019).
Read-outs that look alike come from different tables or passages of the source. Values belong to the compound of their own block, whether it stands above or below them.

What was measured:
MOLM-13 [1] = assay: Secondary dose-response HTS, Cell Titer Glo; assay type: cell-based, human; settings: secondary high-throughput screen, MOLM-13; for EC50: read-out: average effective concentration, MOLM-13
M07e [2] = assay: cells; parameters: species or system AML cell lines (8); Secondary HTS, 10-point dose-response in triplicate, Cell Titer Glo viability, four-parameter fit EC50; settings: M-07e, 72 h, read-out: M07e
CMK [3] = assay: cells; parameters: species or system AML cell lines (8); Secondary HTS, 10-point dose-response in triplicate, Cell Titer Glo viability, four-parameter fit EC50; settings: Homo sapiens, CMK, 72 h, read-out: CMK
CMS [4] = assay: Secondary dose-response HTS, Cell Titer Glo; assay type: cell-based, human; settings: Homo sapiens, HTS, read-out: average effective concentration, CMS
CHRF288-11 [5] = assay: cells; parameters: species or system AML cell lines (8); Secondary HTS, 10-point dose-response in triplicate, Cell Titer Glo viability, four-parameter fit EC50; settings: 72 h, read-out: CHRF288-11
MV4-11 [6] = assay: Secondary dose-response HTS, Cell Titer Glo; assay type: cell-based, human; settings: secondary high-throughput screen, MV4-11; for EC50: Homo sapiens, read-out: average effective concentration, MV4-11
U937 [7] = assay: Secondary dose-response HTS, Cell Titer Glo; assay type: cell-based, human; settings: secondary high-throughput screen, U937, read-out: average effective concentration, U937
ML2 = assay: Secondary dose-response HTS, Cell Titer Glo; assay type: cell-based, human; settings: secondary high-throughput screen, ML-2, read-out: average effective concentration, ML-2
CHRF288-11 [8] = assay: Secondary dose-response HTS, Cell Titer Glo; assay type: cell-based, human; settings: secondary high-throughput screen, CHRF288-11; for EC50: Homo sapiens, HTS, read-out: average effective concentration, CHRF288-11
CMK [9] = assay: Secondary dose-response HTS, Cell Titer Glo; assay type: cell-based, human; settings: CMK; for EC50: Homo sapiens, read-out: average effective concentration, CMK
U937 [10] = assay: cells; parameters: species or system AML cell lines (8); Secondary HTS, 10-point dose-response in triplicate, Cell Titer Glo viability, four-parameter fit EC50; settings: Homo sapiens, U-937, 72 h, read-out: U937
MOLM-13 [11] = assay: cells; parameters: species or system AML cell lines (8); Secondary HTS, 10-point dose-response in triplicate, Cell Titer Glo viability, four-parameter fit EC50; settings: Homo sapiens, MOLM-13, 72 h, read-out: MOLM-13
M07e [12] = assay: Secondary dose-response HTS, Cell Titer Glo; assay type: cell-based, human; settings: secondary high-throughput screen; for EC50: read-out: average effective concentration, M07e
CMS [13] = assay: cells; parameters: species or system AML cell lines (8); Secondary HTS, 10-point dose-response in triplicate, Cell Titer Glo viability, four-parameter fit EC50; settings: 72 h, read-out: CMS
MV4-11 [14] = assay: cells; parameters: species or system AML cell lines (8); Secondary HTS, 10-point dose-response in triplicate, Cell Titer Glo viability, four-parameter fit EC50; settings: Homo sapiens, MV4-11, 72 h, read-out: MV4-11
[15] = secondary high-throughput screen, CMS
[16] = secondary high-throughput screen

EC50 (MOLM-13 [1]; Homo sapiens): 36 nM
EC50 (MV4-11 [6]): 50 nM
EC50 (U937 [7]; Homo sapiens, U-937): 29 nM
SMILES: CN1CC[C@H](c2c(O)cc(O)c3c(=O)cc(-c4ccccc4Cl)oc23)[C@H](O)C1 [ALVOCIDIB]
EC50 (M07e [2]): > 10000 nM
EC50 (CMK [3]): > 10000 nM
EC50 (CMS [4]; [15]): 64 nM
EC50 (CHRF288-11 [5]): > 10000 nM
EC50 (ML2; Homo sapiens): 47 nM

EC50 (MV4-11 [6]): 8 nM
EC50 (U937 [10]): > 10000 nM
EC50 (MOLM-13 [11]): 9.4 nM
SMILES: CC(C)c1cc(C(=O)N2Cc3ccc(CN4CCN(C)CC4)cc3C2)c(O)cc1O [AT13387]
EC50 (M07e [2]): > 10000 nM
EC50 (CHRF288-11 [8]): 39 nM
EC50 (CMS [4]): 34 nM
EC50 (CMK [9]): 11 nM
EC50 (ML2; Homo sapiens): 23 nM

EC50 (MOLM-13 [1]; Homo sapiens): 2700 nM
EC50 (MV4-11 [6]): 3800 nM
EC50 (U937 [7]; Homo sapiens, U-937): 3800 nM
SMILES: COc1cc(Nc2c(C#N)cnc3cc(OCCCN4CCN(C)CC4)c(OC)cc23)c(Cl)cc1Cl [BOSUTINIB]
EC50 (M07e [12]; Homo sapiens, M-07e, M07e): 4800 nM
EC50 (CHRF288-11 [8]): 3800 nM
EC50 (CMS [13]): > 10000 nM
EC50 (CMK [9]): 1100 nM
EC50 (ML2; Homo sapiens): 10000 nM

EC50 (MOLM-13 [1]): 2400 nM
EC50 (U937 [7]): 1300 nM
SMILES: O=C(/C=C/c1cccc(C(=O)NO)c1)NO [CBHA]
EC50 (M07e [12]; M07e): 2200 nM
average effective concentration, CMK (CMK [9]; [16]): Inactive
average effective concentration, MV4-11 (MV4-11 [6]): Inactive
EC50 (ML2): 5200 nM

EC50 (MV4-11 [14]): > 10000 nM
EC50 (U937 [10]): > 10000 nM
EC50 (MOLM-13 [11]): > 10000 nM
SMILES: Cn1c(Nc2ccc(C(F)(F)F)cc2)nc2cc(Oc3ccnc(-c4ncc(C(F)(F)F)[nH]4)c3)ccc21 [CHIR-265]
EC50 (M07e [2]): > 10000 nM
EC50 (CMK [3]): > 10000 nM
EC50 (CHRF288-11 [8]): 6800 nM
EC50 (CMS [4]; [15]): 10000 nM
EC50 (ML2; Homo sapiens): > 10000 nM

SMILES: Nc1ncn([C@@H]2O[C@H](CO)[C@@H](O)[C@H]2O)c(=O)n1 [Compound 5-AZACYTIDINE]
average effective concentration, M07e (M07e [12]; M07e): Inactive
average effective concentration, CHRF288-11 (CHRF288-11 [8]): Inactive
average effective concentration, MV4-11 (MV4-11 [6]): Inactive

SMILES: CC(C)c1cccc(C(C)C)c1N1C(=O)c2ccc(O)cc2C1=O [Compound 5HPP-33]
average effective concentration, M07e (M07e [12]; M07e): Inactive
average effective concentration, MOLM-13 (MOLM-13 [1]): Inactive
average effective concentration, CHRF288-11 (CHRF288-11 [8]): Inactive
average effective concentration, CMK (CMK [9]; [16]): Inactive
average effective concentration, MV4-11 (MV4-11 [6]): Inactive

SMILES: CN[C@@H]1C[C@H]2O[C@@](C)([C@@H]1OC)n1c3ccccc3c3c4c(c5c6ccccc6n2c5c31)C(=O)N[C@H]4O [Compound 7-HYDROXYSTAUROSPORINE]
average effective concentration, M07e (M07e [12]; […]): Inactive

EC50 (MOLM-13 [1]; Homo sapiens): 1 nM
EC50 (MV4-11 [6]): 1 nM
EC50 (U937 [7]; Homo sapiens, U-937): 1 nM
SMILES: O=C(/C=C/c1cccnc1)NCCCCC1CCN(C(=O)c2ccccc2)CC1 [DAPORINAD]
EC50 (M07e [12]; Homo sapiens, M-07e, M07e): 1 nM
EC50 (CHRF288-11 [8]): 12 nM
EC50 (CMS [13]): > 10000 nM
EC50 (CMK [9]; [16]): 1 nM
EC50 (ML2; Homo sapiens): 1 nM

SMILES: COc1cccc2c1C(=O)c1c(O)c3c(c(O)c1C2=O)C[C@@](O)(C(C)=O)C[C@@H]3O[C@H]1C[C@H](N)[C@H](O)[C@H](C)O1 [DAUNORUBICIN]
EC50 (M07e [12]; Homo sapiens, M-07e, […]): 9 nM
EC50 (MOLM-13 [1]; Homo sapiens): 43 nM
EC50 (CHRF288-11 [8]): 1 nM
EC50 (CMK [9]; [16]): 35 nM
EC50 (MV4-11 [6]): 23 nM
EC50 (U937 [7]; Homo sapiens, U-937): 4.3 nM
EC50 (ML2; Homo sapiens): 1 nM

SMILES: CC(C)(C#N)c1ccc(N2C(=O)OCc3cnc4ccc(-c5cnc6ccccc6c5)cc4c32)cc1 [ETP-46464]
average effective concentration, M07e (M07e [12]; […]): Inactive
average effective concentration, MOLM-13 (MOLM-13 [1]): Inactive
average effective concentration, MV4-11 (MV4-11 [6]): Inactive

SMILES: N#CN=C(NCCCCCCOc1ccc(Cl)cc1)Nc1ccncc1 [GMX-1778]
EC50 (M07e [12]; Homo sapiens, M-07e, […]): 0.52 nM
EC50 (MOLM-13 [1]; Homo sapiens): 3.6 nM
EC50 (CHRF288-11 [8]): 0.48 nM
EC50 (CMS [13]): > 10000 nM
EC50 (CMK [9]; [16]): 5.6 nM
EC50 (MV4-11 [6]): 1.1 nM
EC50 (U937 [7]; Homo sapiens, U-937): 5 nM
EC50 (ML2; Homo sapiens): 0.35 nM
